According to patent US10004738B2, “Combination treatment comprising administration of 2-amino-3,5,5-trifluoro-3,4,5,6-tetrahydropyridines” (H. Lundbeck A/S, priority 2015, dated 2018):
Where two headings read alike, the source gives them in different places.

Experiments:
BACE1 enzyme = BACE1 enzyme (Homo sapiens (Human), UniProt P56817); assay: BACE1 efficacy assay (FRET-based, commercial BACE1 kit); type: biochemical; details: test compound 10 μM, 3 nM enzyme, 250 nM substrate
Protocol: The efficacy assay was performed as a FRET-based assay using a commercially available BACE1 kit (Life Technologies, P2985). 2 μl test compound at 10 μM (final concentration) and 15 μl BACE1 enzyme from the kit (final concentration 3 nM) were preincubated for 15 minutes at room temperature before addition of 15 μl of substrate from the kit (250 nM final concentration) and incubated for additional 90 minutes at room temperature. The assay plate was subsequently read in a Pherastar (Ex540/Em590). […] The efficacy of the test compounds was evaluated at 10 μM (final concentration) and defined as the percent inhibition of the enzyme activity using the equation % inhibition=100%−normalized enzyme activity in percent.

[1] = Brain and plasma exposure in rats after oral dosing (DMPK analysis); type: in vivo; details: male, Sprague Dawley, rat, 3 hours post dose
Protocol: Young adult Male Sprague Dawley rats of approximately 250 g weight were purchased from Charles River and received 0-30 mg/kg of vehicle (10% HP betaCD+1M MeSO4, pH 2.5) or test compounds (dissolved in vehicle) only by oral gavage (p.o). The compounds are dosed at a volume of 5 ml/kg. Cohorts of 5-10 animals were established for each treatment condition.
At T=180 minutes after initial dosing the animals were stunned and decapitated with a guillotine. Trunk-blood was sampled in EDTA coated tubes after decapitation of the animal. The blood was centrifuged at 2200G at 4° C. for 15 minutes and the plasma was collected and frozen at −80° C. The blood was aliquoted for Aβ ELISA and DMPK analysis. Immediately following sacrifice, the brain was extracted and split into 2 halves. The right hemibrains were snap frozen on dry ice and stored at −80° C. The left half was dissected; with the front forebrain taken for Aβ ELISA and the remainder used for DMPK analysis. These samples were also snap frozen on dry ice and stored at −80° C. until use for analysis.
Compounds 1, 5, 17, 18, and 24 were administered at doses of 10 or 30 mg/kg p.o. and brain and plasma samples were collected at 3 hours post dose and the following exposures and reductions in Aβ40 levels were measured as described above.

[2] = 10 mg/kg p.o., brain, read-out: Exp, brain
[3] = 10 mg/kg p.o., plasma, read-out: Exp, plasma
[4] = 30 mg/kg p.o., brain, read-out: Exp, brain
[5] = 30 mg/kg p.o., plasma, read-out: Exp, plasma

Sequence of BACE1 enzyme (P56817 46-501): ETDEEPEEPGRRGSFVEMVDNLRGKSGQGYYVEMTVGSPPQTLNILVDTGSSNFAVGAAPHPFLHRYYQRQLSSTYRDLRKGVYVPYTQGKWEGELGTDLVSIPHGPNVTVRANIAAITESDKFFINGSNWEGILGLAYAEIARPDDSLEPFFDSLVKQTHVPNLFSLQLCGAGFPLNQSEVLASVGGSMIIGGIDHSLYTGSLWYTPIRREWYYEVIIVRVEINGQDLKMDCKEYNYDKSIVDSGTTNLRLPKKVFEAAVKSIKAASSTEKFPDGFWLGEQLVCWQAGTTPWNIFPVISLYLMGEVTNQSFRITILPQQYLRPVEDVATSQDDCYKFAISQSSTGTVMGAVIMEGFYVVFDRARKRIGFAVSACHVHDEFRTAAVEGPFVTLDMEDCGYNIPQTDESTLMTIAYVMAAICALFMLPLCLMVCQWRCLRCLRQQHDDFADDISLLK

| inhibition at 10 µM (BACE1 enzyme) | concentration at 3 h [1, 2] | concentration at 3 h [1, 3] | concentration at 3 h [1, 4] | concentration at 3 h [1, 5] | SMILES |
| --- | --- | --- | --- | --- | --- |
| 96% | 174 ng/g | 137 ng/g | 954 ng/g | 632 ng/g | COc1cnc(C(=O)Nc2ccc(F)c([C@@]3(C)N=C(N)[C@@](C)(F)CC3(F)F)c2)cn1 [Compound 5, N-(3-((2R,5S)-6-amino-3,3,5-trifluoro-2,5-dimethyl-2,3,4,5-tetrahydropyridin-2-yl)-4-fluorophenyl)-5-methoxypyrazine-2-carboxamide] |
| 104% |  |  | 2190 ng/g | 3540 ng/g | C[C@]1(F)CC(F)(F)[C@@](C)(c2cc(NC(=O)c3ccc(F)cn3)ccc2F)N=C1N [Compound 1, N-(3-((2R,5S)-6-amino-3,3,5-trifluoro-2,5-dimethyl-2,3,4,5-tetrahydropyridin-2-yl)-4-fluorophenyl)-5-fluoropicolinamide] |
| 104% |  |  |  |  | COc1cnc(C(=O)Nc2ccc(F)c([C@@]3(C)N=C(N)[C@@](C)(F)CC3(F)F)c2)nc1 [Compound 12, N-(3-((2R,5S)-6-amino-3,3,5-trifluoro-2,5-dimethyl-2,3,4,5-tetrahydropyridin-2-yl)-4-fluorophenyl)-5-methoxpyrimidine-2-carboxamide] |
| 103% |  |  |  |  | C[C@@]1(F)CC(F)(F)[C@@](C)(c2cc(NC(=O)c3ccc(Cl)cn3)ccc2F)N=C1N [Compound 33, N-(3-((2R,5R)-6-amino-3,3,5-trifluoro-2,5-dimethyl-2,3,4,5-tetrahydropyridin-2-yl)-4-fluorophenyl)-5-chloropicolinamide] |
| 102% | 412 ng/g | 778 ng/g | 1610 ng/g | 3000 ng/g | Cc1cc(C#N)cnc1C(=O)Nc1ccc(F)c([C@@]2(C)N=C(N)[C@@](C)(F)CC2(F)F)c1 [Compound 18, N-(3-((2R,5S)-6-amino-3,3,5-trifluoro-2,5-dimethyl-2,3,4,5-tetrahydropyridin-2-yl)-4-fluorophenyl)-5-cyano-3-methylpicolinamide] |
| 102% |  |  |  |  | Cc1noc(C(=O)Nc2ccc(F)c([C@@]3(C)N=C(N)[C@@](C)(F)CC3(F)F)c2)n1 [Compound 21, N-(3-((2R,5S)-6-amino-3,3,5-trifluoro-2,5-dimethyl-2,3,4,5-tetrahydropyridin-2-yl)-4-fluorophenyl)-3-methyl-1,2,4-oxadiazole-5-carboxamide] |
| 102% |  |  |  |  | C[C@]1(F)CC(F)(F)[C@@](C)(c2cc(NC(=O)c3ccc(Cl)cn3)ccc2F)N=C1N [Compound 3, N-(3-((2R,5S)-6-amino-3,3,5-trifluoro-2,5-dimethyl-2,3,4,5-tetrahydropyridin-2-yl)-4-fluorophenyl)-5-chloropicolinamide] |
| 102% |  |  |  |  | COc1cnc(C(=O)Nc2ccc(F)c([C@@]3(C)N=C(N)[C@](C)(F)CC3(F)F)c2)cn1 [Compound 25, N-(3-((2R,5R)-6-amino-3,3,5-trifluoro-2,5-dimethyl-2,3,4,5-tetrahydropyridin-2-yl)-4-fluorophenyl)-5-methoxypyrazine-2-carboxamide] |
| 92% |  |  |  |  | Cn1cnc(C(=O)Nc2ccc(F)c([C@@]3(C)N=C(N)[C@@](C)(F)CC3(F)F)c2)n1 [Compound 22, N-(3-((2R,5S)-6-amino-3,3,5-trifluoro-2,5-dimethyl-2,3,4,5-tetrahydropyridin-2-yl)-4-fluorophenyl)-1-methyl-1H-1,2,4-triazole-3-carboxamide] |
| 101% |  |  | 1220 ng/g | 828 ng/g | COc1ccc(C(=O)Nc2ccc(F)c([C@@]3(C)N=C(N)[C@@](C)(F)CC3(F)F)c2)nc1 [Compound 17, N-(3-((2R,5S)-6-amino-3,3,5-trifluoro-2,5-dimethyl-2,3,4,5-tetrahydropyridin-2-yl)-4-fluorophenyl)-5-methoxypicolinamide] |
| 101% |  |  |  |  | C[C@]1(F)CC(F)(F)[C@@](C)(c2cc(NC(=O)c3nc(CF)cs3)ccc2F)N=C1N [Compound 15, N-(3-((2R,5S)-6-amino-3,3,5-trifluoro-2,5-dimethyl-2,3,4,5-tetrahydropyridin-2-yl)-4-fluorophenyl)-4-(fluoromethyl)thiazole-2-carboxamide] |
| 93% |  |  |  |  | Cc1ccc(C(=O)Nc2ccc(F)c([C@@]3(C)N=C(N)[C@](C)(F)CC3(F)F)c2)o1 [Compound 41, N-(3-((2R,5R)-6-amino-3,3,5-trifluoro-2,5-dimethyl-2,3,4,5-tetrahydropyridin-2-yl)-4-fluorophenyl)-5-methylfuran-2-carboxamide] |
| 99% |  |  |  |  | C[C@]1(F)CC(F)(F)[C@@](C)(c2cc(NC(=O)c3ccc(C(F)(F)F)cn3)ccc2F)N=C1N [Compound 11, N-(3-((2R,5S)-6-amino-3,3,5-trifluoro-2,5-dimethyl-2,3,4,5-tetrahydropyridin-2-yl)-4-fluorophenyl)-5-(trifluoromethyl)picolinamide] |
| 88% |  |  |  |  | Cc1nnc(C(=O)Nc2ccc(F)c([C@@]3(C)N=C(N)[C@@](C)(F)CC3(F)F)c2)o1 [Compound 20, N-(3-((2R,5S)-6-amino-3,3,5-trifluoro-2,5-dimethyl-2,3,4,5-tetrahydropyridin-2-yl)-4-fluorophenyl)-5-methyl-1,3,4-oxadiazole-2-carboxamide] |
| 105% |  |  |  |  | C[C@]1(F)CC(F)(F)[C@@](C)(c2cc(NC(=O)c3cnc(C(F)F)cn3)ccc2F)N=C1N [Compound 16, N-(3-((2R,5S)-6-amino-3,3,5-trifluoro-2,5-dimethyl-2,3,4,5-tetrahydropyridin-2-yl)-4-fluorophenyl)-5-(difluoromethyl)pyrazine-2-carboxamide] |
| 98% |  |  |  |  | Cc1cc(F)cnc1C(=O)Nc1ccc(F)c([C@@]2(C)N=C(N)[C@@](C)(F)CC2(F)F)c1 [Compound 49, N-(3-((2R,5S)-6-amino-3,3,5-trifluoro-2,5-dimethyl-2,3,4,5-tetrahydropyridin-2-yl)-4-fluorophenyl)-5-fluoro-3-methylpicolinamide] |
| 98% | 134 ng/g | 96.2 ng/g | 809 ng/g | 673 ng/g | C[C@@]1(F)CC(F)(F)[C@@](C)(c2cc(NC(=O)c3cnc(C(F)F)cn3)ccc2F)N=C1N [Compound 24, N-(3-((2R,5R)-6-amino-3,3,5-trifluoro-2,5-dimethyl-2,3,4,5-tetrahydropyridin-2-yl)-4-fluorophenyl)-5-(difluoromethyl)pyrazine-2-carboxamide] |
| 103% |  |  |  |  | C[C@@]1(F)CC(F)(F)[C@@](C)(c2cc(NC(=O)c3nc(CF)co3)ccc2F)N=C1N [Compound 30, N-(3-((2R,5R)-6-amino-3,3,5-trifluoro-2,5-dimethyl-2,3,4,5-tetrahydropyridin-2-yl)-4-fluorophenyl)-4-(fluoromethyl)oxazole-2-carboxamide] |
| 102% |  |  |  |  | C[C@]1(F)CC(F)(F)[C@@](C)(c2cc(NC(=O)c3nc(CF)co3)ccc2F)N=C1N [Compound 14, N-(3-((2R,5S)-6-amino-3,3,5-trifluoro-2,5-dimethyl-2,3,4,5-tetrahydropyridin-2-yl)-4-fluorophenyl)-4-(fluoromethyl)oxazole-2-carboxamide] |
| 101% |  |  |  |  | COc1cnc(C(=O)Nc2ccc(F)c([C@@]3(C)N=C(N)[C@@](C)(F)CC3(F)F)c2)c(F)c1 [Compound 46, N-(3-((2R,5S)-6-amino-3,3,5-trifluoro-2,5-dimethyl-2,3,4,5-tetrahydropyridin-2-yl)-4-fluorophenyl)-3-fluoro-5-methoxypicolinamide] |
| 99% |  |  |  |  | C[C@]1(F)CC(F)(F)[C@@](C)(c2cc(NC(=O)c3ccc(C#N)cn3)ccc2F)N=C1N [Compound 4, N-(3-((2R,5S)-6-amino-3,3,5-trifluoro-2,5-dimethyl-2,3,4,5-tetrahydropyridin-2-yl)-4-fluorophenyl)-5-cyanopicolinamide] |
